Source: ChEMBL document CHEMBL1201862, “PubChem BioAssay data set” (2004)
The source made the active and inactive calls.

What was measured:
[1] = target: T1, Tyrosine-protein phosphatase non-receptor type 7 (Homo sapiens, UniProt P35236); assay: SAR analysis of chemical inhibitors of HePTP using a Fluorescent assay - Set 2. [Related pubchem assays (depositor defined):AID1059, AID1077, AID1661, AID2085, AID521]; assay type: functional
T1 sequence (P35236 whole entry): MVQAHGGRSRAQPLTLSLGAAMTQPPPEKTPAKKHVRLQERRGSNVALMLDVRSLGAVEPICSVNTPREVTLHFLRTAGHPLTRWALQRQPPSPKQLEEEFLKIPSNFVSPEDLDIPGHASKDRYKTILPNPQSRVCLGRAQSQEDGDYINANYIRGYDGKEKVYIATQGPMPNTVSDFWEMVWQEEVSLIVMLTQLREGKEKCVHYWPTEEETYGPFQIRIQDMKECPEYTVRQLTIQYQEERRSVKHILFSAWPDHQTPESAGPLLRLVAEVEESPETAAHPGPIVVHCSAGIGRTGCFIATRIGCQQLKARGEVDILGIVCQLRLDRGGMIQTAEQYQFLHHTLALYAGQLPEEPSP

[2] = target: Dual specificity protein phosphatase 3 (Homo sapiens, UniProt P51452); assay: SAR VHR1 Fluorescent Assay for In Vitro dose response studies Set 2. [Related pubchem assays (depositor defined):AID1654, AID1661, AID1878]; assay type: functional
Hexokinase = Hexokinase (Trypanosoma brucei, UniProt Q38C41); assay: Confirmation assay for inhibitors of Trypanosoma brucei hexokinase 1-Analogue-first series. [Related pubchem assays (depositor defined):AID1430, AID1632, AID2516, AID2560, AID2579, AID2600, AID449725, AID492951]; assay type: functional
[3] = target: T2, Sphingosine 1-phosphate receptor 4 (Homo sapiens, UniProt O95977); assay: S1P4 receptor agonists, human, late-stage follow-up, cell-based, fluorescence, synthesized compounds (AID 463107); assay type: functional
T2 sequence (O95977 whole entry): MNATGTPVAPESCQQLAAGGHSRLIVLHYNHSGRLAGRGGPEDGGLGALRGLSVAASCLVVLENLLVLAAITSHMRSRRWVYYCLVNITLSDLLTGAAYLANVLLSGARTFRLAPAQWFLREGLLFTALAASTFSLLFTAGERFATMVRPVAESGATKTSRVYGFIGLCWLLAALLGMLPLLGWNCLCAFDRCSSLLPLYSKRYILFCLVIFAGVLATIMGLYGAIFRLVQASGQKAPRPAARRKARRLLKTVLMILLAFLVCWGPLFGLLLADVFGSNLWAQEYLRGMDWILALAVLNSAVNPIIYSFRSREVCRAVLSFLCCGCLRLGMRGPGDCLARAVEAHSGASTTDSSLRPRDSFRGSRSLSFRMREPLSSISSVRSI

[4] = cytotoxicity in HPDE-C7 cells, cell-based, fluorescence, HTS (AID 430); assay type: functional; settings: Homo sapiens
[5] = cytotoxicity in KRAS-transformed pancreatic duct cells, primary screen, cell-based, fluorescence, HTS (AID 431); assay type: functional; settings: Homo sapiens;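 also: cell line used: HPDE-C7K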
[6] = target: T3, Short transient receptor potential channel 4 (Mus musculus, UniProt Q9QUQ5); assay: TRPC4 positive allosteric modulators, dose response, cell-based, HEK293 TRPC4/mu-opioid, Fluo-4 calcium, EC20 DAMGO (AID 434941); assay type: functional
T3 sequence (Q9QUQ5 whole entry): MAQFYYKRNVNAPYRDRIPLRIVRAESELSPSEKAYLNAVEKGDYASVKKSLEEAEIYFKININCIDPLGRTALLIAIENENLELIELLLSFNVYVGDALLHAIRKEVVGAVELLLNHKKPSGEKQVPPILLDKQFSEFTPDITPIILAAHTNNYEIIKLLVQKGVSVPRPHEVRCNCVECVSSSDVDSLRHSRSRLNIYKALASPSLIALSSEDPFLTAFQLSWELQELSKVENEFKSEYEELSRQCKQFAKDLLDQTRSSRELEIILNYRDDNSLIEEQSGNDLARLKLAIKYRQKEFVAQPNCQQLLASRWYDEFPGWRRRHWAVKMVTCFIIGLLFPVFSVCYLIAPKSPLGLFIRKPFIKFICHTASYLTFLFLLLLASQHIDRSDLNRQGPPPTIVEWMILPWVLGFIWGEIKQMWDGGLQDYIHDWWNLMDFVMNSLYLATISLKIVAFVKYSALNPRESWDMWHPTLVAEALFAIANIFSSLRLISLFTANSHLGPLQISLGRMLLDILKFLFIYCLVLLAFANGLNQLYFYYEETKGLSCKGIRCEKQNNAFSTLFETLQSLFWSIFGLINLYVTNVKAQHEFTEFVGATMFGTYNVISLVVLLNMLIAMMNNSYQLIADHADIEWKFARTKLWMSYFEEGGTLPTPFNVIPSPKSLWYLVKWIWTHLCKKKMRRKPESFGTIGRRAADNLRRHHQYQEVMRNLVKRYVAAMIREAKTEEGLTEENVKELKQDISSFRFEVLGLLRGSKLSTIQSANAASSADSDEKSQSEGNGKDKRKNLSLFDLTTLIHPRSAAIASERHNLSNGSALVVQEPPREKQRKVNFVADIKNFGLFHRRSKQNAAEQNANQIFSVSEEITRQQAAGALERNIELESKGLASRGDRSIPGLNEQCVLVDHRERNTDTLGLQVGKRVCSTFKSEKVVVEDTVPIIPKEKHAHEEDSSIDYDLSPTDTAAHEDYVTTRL

[7] = target: T3, Short transient receptor potential channel 4; assay: mouse TRPC4 channel activators, dose response, cell-based, HEK293 TRPC4/mu-opioid, Fluo-4 calcium (AID 434937); assay type: functional
[8] = target: T4, Heat shock factor protein 1 (Mus musculus, UniProt P38532); assay: HSF1 potentiators in luciferase reporter cells, confirmation, cell-based, NIH3T3, luminescence, dose retest (AID 435004); assay type: functional;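 also: stress induced by proteasome inhibitor MG132 added 30 min after compound; luciferase reporter driven by HSF1 response element in NIH3T3 cells; actives raise luminescence as potentiators of the MG132 stress response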
T4 sequence (P38532 whole entry): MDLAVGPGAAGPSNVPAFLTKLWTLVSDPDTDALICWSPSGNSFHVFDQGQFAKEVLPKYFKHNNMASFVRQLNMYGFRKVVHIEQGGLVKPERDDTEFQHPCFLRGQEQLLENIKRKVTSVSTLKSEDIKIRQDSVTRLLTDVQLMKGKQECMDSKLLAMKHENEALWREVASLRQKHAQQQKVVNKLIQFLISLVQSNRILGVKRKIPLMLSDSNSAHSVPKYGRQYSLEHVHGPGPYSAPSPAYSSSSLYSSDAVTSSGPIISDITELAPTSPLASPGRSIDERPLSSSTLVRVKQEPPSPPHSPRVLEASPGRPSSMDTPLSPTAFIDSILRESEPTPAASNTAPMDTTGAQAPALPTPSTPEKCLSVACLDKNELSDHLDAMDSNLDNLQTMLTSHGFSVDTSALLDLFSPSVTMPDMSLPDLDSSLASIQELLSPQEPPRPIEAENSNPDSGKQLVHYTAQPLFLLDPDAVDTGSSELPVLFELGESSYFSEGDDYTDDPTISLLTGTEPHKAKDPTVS

[9] = target: T5, High affinity choline transporter 1 (Homo sapiens, UniProt Q9GZV3); assay: CHT inhibitors, dose response, cell-based, 5-point CRC, membrane potential dye (AID 504840); assay type: functional
T5 sequence (Q9GZV3 whole entry): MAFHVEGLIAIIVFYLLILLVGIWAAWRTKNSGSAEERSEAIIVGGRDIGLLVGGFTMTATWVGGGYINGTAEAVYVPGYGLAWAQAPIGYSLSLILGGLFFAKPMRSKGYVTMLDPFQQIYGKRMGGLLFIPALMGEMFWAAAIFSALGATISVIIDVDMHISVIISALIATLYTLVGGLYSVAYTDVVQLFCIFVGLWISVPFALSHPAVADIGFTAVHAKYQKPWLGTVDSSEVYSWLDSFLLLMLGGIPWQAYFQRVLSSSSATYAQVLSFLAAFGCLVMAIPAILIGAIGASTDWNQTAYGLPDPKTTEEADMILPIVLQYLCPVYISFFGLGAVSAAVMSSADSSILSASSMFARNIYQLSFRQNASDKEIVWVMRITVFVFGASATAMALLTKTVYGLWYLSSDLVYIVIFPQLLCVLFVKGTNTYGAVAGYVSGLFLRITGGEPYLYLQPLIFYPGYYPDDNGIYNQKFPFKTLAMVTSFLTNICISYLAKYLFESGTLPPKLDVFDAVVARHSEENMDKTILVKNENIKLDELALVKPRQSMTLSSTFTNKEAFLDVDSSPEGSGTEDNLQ

T-cell = assay: inhibitors of CD8+ T cell–vesicle binding, dose response, mouse 2C CD8+ T cells, flow cytometry (AID 485284); assay type: functional
Ion channel NompC = Ion channel NompC (Danio rerio, UniProt Q7T1G6); assay: Dose response cell-based high-throughput screening assay for agonists of the transient receptor potential channel N1 (TRPN1). [Related pubchem assays (depositor defined):AID1424, AID1448]; assay type: functional
Mucolipin-3 = Mucolipin-3 (Homo sapiens, UniProt Q8TDD5); assay: Fluorescence counterscreen assay for […] agonists: dose response cell-based high-throughput screening assay to identify agonists of the transient receptor potential channel ML3 (TRPML3). [Related pubchem assays: 1424, 1448 ]; assay type: functional
[10] = target: Photoreceptor-specific nuclear receptor (Homo sapiens, UniProt Q9Y5X4); assay type: functional, cell-based;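 also: CHO-S cells with Gal4-NCOR and VP16-NR2E3 two-hybrid luciferase reporter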
[11] = target: Type-1 angiotensin II receptor (Homo sapiens, UniProt P30556); assay: AT1 receptor agonists, dose response, selectivity assay for APJ receptor agonist project, cell-based, uHTS hits (AID 488865); assay type: functional;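 also: beta-arrestin recruitment to AT1 measured by enzyme fragment complementation luminescence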
Coagulation factor XII = target: T6, Coagulation factor XII (Homo sapiens, UniProt P00748); assay type: functional;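 also: activated factor XIIa alpha cleaving a fluorogenic AMC peptide substrate; inhibitor potency from loss of enzyme activity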
T6 sequence (P00748 whole entry): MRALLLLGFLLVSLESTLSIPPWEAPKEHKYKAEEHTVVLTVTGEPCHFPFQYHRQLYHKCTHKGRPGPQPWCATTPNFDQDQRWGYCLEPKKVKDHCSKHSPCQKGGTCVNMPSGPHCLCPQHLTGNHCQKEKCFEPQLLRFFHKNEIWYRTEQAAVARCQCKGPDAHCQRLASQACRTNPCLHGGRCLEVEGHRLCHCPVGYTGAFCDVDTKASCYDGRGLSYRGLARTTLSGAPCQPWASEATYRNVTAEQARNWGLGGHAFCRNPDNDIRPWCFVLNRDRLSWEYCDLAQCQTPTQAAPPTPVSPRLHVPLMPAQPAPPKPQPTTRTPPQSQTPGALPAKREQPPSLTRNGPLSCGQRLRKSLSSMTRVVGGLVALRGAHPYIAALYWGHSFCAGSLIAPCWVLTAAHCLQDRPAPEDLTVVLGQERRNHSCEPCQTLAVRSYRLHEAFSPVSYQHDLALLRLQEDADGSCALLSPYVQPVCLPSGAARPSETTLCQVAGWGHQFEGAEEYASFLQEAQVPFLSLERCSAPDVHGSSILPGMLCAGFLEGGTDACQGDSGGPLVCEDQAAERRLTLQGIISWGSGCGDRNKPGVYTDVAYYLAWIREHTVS

Mucolipin-3, sequence (Q8TDD5 whole entry, the tested form may be a part): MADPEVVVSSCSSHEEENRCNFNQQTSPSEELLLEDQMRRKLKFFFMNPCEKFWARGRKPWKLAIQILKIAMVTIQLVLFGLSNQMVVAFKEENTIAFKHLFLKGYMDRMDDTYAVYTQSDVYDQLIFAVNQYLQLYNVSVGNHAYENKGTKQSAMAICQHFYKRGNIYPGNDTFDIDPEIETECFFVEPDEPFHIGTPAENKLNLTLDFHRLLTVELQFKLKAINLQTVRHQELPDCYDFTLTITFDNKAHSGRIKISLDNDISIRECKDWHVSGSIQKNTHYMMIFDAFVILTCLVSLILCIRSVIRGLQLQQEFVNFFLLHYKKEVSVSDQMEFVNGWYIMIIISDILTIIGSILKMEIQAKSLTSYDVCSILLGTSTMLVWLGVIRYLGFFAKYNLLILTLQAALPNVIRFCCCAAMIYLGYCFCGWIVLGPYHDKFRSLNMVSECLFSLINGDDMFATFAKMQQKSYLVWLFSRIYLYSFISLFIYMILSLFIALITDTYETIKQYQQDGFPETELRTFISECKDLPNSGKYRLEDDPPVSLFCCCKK
Ion channel NompC, sequence (Q7T1G6 whole entry): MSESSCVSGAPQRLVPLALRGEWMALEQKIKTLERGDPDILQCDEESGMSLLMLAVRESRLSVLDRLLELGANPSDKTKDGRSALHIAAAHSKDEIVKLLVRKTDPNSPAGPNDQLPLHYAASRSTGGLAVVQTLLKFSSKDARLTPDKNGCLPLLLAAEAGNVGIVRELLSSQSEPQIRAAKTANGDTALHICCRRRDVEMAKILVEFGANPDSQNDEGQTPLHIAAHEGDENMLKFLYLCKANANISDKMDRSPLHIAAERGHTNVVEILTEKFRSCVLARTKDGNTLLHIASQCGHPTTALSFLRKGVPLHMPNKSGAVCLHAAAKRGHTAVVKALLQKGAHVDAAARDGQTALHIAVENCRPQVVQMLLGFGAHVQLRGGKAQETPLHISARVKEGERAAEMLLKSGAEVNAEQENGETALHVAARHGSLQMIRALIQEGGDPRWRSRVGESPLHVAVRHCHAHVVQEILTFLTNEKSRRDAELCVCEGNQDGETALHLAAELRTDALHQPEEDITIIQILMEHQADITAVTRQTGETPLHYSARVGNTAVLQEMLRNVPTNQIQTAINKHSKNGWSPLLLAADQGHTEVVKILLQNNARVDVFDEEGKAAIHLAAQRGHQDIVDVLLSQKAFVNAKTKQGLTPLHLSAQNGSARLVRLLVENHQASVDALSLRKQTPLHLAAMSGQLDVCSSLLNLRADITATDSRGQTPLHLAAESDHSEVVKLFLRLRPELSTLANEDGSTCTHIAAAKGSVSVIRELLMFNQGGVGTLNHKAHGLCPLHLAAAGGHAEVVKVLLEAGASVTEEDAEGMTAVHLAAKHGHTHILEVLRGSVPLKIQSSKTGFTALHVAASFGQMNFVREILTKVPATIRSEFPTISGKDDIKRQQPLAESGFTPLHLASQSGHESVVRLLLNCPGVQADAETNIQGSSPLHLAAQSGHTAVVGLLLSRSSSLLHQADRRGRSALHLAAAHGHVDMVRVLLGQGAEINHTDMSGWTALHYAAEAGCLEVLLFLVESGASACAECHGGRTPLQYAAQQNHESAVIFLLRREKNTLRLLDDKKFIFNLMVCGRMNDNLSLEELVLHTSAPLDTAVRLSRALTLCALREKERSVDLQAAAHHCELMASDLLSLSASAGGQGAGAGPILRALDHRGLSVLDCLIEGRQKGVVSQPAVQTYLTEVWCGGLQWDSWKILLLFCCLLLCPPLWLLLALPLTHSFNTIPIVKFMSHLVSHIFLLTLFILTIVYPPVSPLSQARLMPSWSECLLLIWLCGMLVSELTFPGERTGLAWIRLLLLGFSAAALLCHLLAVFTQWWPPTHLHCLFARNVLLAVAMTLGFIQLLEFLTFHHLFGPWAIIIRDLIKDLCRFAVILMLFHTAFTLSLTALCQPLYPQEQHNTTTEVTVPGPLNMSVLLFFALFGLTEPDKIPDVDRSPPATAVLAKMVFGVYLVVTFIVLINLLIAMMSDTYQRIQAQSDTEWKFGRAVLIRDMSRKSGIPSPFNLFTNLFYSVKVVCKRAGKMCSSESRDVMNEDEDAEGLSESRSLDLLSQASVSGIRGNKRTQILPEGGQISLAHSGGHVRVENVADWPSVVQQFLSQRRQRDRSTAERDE
Photoreceptor-specific nuclear receptor, sequence (Q9Y5X4 whole entry, the tested form may be a part): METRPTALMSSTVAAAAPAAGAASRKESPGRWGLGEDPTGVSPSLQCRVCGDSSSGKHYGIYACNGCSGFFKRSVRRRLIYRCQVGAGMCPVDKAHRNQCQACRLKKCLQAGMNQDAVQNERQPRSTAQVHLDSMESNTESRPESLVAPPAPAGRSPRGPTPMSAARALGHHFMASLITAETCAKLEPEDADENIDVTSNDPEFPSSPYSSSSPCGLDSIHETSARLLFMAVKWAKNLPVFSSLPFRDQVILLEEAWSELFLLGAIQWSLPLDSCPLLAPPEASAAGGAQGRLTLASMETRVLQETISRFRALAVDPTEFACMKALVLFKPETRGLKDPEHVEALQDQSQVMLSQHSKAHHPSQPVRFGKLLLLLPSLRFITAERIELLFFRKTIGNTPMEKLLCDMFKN
Hexokinase, sequence (Q38C41 whole entry): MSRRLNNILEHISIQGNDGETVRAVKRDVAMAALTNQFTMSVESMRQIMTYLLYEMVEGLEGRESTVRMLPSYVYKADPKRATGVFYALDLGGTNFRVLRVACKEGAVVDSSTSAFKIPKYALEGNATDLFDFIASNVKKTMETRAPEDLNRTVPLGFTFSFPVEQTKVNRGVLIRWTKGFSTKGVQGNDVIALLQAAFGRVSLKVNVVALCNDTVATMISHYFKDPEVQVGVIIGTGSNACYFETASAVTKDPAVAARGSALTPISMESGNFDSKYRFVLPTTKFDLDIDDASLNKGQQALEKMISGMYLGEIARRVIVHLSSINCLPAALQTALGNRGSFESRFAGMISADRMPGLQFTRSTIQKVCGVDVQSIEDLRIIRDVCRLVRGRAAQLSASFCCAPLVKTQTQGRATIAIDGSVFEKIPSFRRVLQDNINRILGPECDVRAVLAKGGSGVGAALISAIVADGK
Dual specificity protein phosphatase 3, sequence (P51452 whole entry): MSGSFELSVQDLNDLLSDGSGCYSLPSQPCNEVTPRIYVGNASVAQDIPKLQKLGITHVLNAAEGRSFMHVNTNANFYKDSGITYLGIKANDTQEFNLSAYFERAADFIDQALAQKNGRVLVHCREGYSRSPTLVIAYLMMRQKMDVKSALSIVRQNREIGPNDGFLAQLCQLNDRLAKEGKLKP
Type-1 angiotensin II receptor, sequence (P30556 whole entry, the tested form may be a part): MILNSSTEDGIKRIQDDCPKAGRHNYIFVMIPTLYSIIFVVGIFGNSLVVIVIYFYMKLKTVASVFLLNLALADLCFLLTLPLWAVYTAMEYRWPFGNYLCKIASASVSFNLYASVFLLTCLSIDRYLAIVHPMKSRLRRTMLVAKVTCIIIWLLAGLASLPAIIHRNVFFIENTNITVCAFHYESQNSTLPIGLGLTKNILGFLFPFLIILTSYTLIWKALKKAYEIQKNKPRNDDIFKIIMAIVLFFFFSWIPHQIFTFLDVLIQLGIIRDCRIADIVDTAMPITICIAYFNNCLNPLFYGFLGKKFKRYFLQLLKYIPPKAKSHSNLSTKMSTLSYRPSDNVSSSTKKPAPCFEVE

## S=C(Nc1ccccc1)N1CCN(Cc2ccc3c(c2)OCO3)CC1
[1]
  IC50: > 100 µM (inactive)
[2]
  IC50: > 100 µM (inactive)

## O=C(Nc1cc(Cl)ccc1C(=O)O)c1ccc(C(F)(F)F)cc1
Hexokinase
  IC50: > 25 µM (inactive)

## COCc1ccc(OCCOc2ccc(Cl)cc2Cl)c(Cl)n1
[3]
  EC50: 12 µM (inactive)

## CCCCc1cc(O)c(CCCC)c(O)c1
[4]
  EC50: 8.86 µM (active)
[5]
  EC50: 9.78 µM (active)
[6]
  EC50: 1.88 µM (active)
[7]
  EC50: 0.473 µM (active)
[8]
  EC50: 9.33 µM (active)
[9]
  IC50: 6.03 µM (active)

## O=C(NCCN1CCN(c2ccccc2)CC1)c1cccc(Br)c1
T-cell
  EC50: 7.17 µM (active)

## N#C/C(=N\Nc1ccc(Cl)c(Cl)c1)C(=O)C1CC1
Ion channel NompC
  EC50: > 9.97 µM (inactive)
Mucolipin-3
  EC50: > 29.9 µM (not active)
[10]
  IC50: 1.29 µM (active)

## CCCc1cc(C(=O)Nc2sc3c(c2C(=O)OCC)CCCC3)no1
[11]
  EC50: > 100 µM (inactive)

## COC(=O)c1n[nH]c(NC(=O)c2ccccc2Cl)n1
Coagulation factor XII
  IC50: 1.05 µM (active)
